test: Water solubility by 1H-qNMR in D2O; type: physicochemical; settings: 298 K

Compound | Water Solubility [µg/mL]
Nc1ccc(S(=O)(=O)Nc2ncccn2)cc1 [AB-4, sulfadiazine] | 112
COc1cc(Cc2cnc(N)nc2N)cc(OC)c1OC [AB-2, trimethoprim] | 284
NNC(=O)c1ccncc1 [AB-5, isoniazid] | 5350

From PMC12029531, “Selenium in Action: Exploring the Biological Wonders of Hydroselenite Salts” (Molecules, 2025)
